# Laboratory results reported in patent publication US20240009212A1, “PHOSPHAPLATIN COMPOUNDS AS THERAPEUTIC AGENTS SELECTIVELY TARGETING HIGHLY GLYCOLYTIC TUMOR CELLS AND METHODS THEREOF” (Promontory Therapeutics Inc., priority 2020, published 2024).
# Peptide text beside a SMILES is read from it. * marks the point of attachment. Cbz = O=C(OCc1ccccc1)*; CH2F = FC*
# Tests used:
# Assay type in all cases: cell-based, mouse
# [1] = test system: L929dt and L929^dt cells; assay: Mitochondrial ROS production (MitoSOX), sensitive cells
# Method: Total ROS production and mitochondrial membrane potential were simultaneously measured using a FACScalibur flow cytometer. Pretreated cells with PT-112 were incubated with DiOC6 at 20 nM (Molecular Probes, Madrid) and DHE at 2 μM (Molecular Probes, Madrid) for 30 min at 37° C. For specific mitochondrial ROS production, cells were incubated with MitoSOX™ (5 μM, ThermoFisher, Rockford, USA) for 30 minutes at 37° C.
# In order to obtain more evidence about the mechanism of action of PT-112, its effect on ROS production was analyzed. First, a time-course determination of total ROS generation by detection of 2HE oxidation was performed by flow cytometry. […] To complete this study, specific mitochondrial ROS production upon PT-112 treatment using the MitoSOX™ reagent was determined.
# However, this effect can be due to direct reactivity of the thiol group with Pt, inactivating the cytotoxic potential of PT-112, and not to the elimination of ROS generation. This hypothesis was confirmed by incubating PT-112 with GSH during 1 h in the absence of cells and adding this GSH-treated PT-112 to cells, showing no cytotoxicity (FIG. 6). […] Since PT-112-induced ROS generation seems to be concentrated in mitochondria, the mitochondria-specific ROS scavenger MitoTEMPO was used. Cells (3×10^4) were seeded in a 96-well plate in phenol red-free medium and were incubated with 100 μM of MitoTEMPO for 2 h. Then, 10 μM of PT-112 was added and incubated for 48 and 72 h at 37° C.
# [2] = test system: L929dt and L929^dt cells; assay: ROS scavengers on PT-112-induced cell death; settings: for effect on PT-112-induced cell death: ROS scavenger plus 10 μM PT-112 (GSH 5 mM, 72 h)
# [3] = test system: glycolytic cells sensitive to PT-112-induced cell death; assay: Apoptosis and necroptosis inhibition of PT-112-induced cell death; settings: 1 h pretreatment (Z-VAD-fmk 50 μM, necrostatin-1 30 μM), then 10 μM PT-112 for 48 h
# Method: Cells (3×10^4) were seeded in a 96-well plate and incubated with a pan-caspase-inhibitor Z-VAD-fmk (50 μM, MedChem Express, New Jersey, USA) and/or RIPK-1 inhibitor necrostatin-1 (30 μM, MedChem Express, New Jersey, USA) for 1 h. After that, cells were treated with 10 μM of PT-112 and incubated for 48 h at 37° C. Both inhibitors were refreshed in their corresponding well after 24 h. Finally, cell death was assessed using flow cytometry after incubation with annexin-V-FITC and 7-AAD for 10 minutes. […] For this purpose, a FITC-labelled anti-caspase-3 antibody that detects cleaved, active caspase-3 by flow cytometry was used. Cells (3×10^4) were treated with 10 μM of PT-112 for 24-72 h. Then, cells were incubated with anti-cleaved caspase-3 labelled with FITC dye and analyzed by flow cytometry. […] The implications of caspase-3 activation in this process were investigated by tested the ability of the general pan-caspase inhibitor Z-VAD-fmk and/or the necroptosis inhibitor necrostatin-1 to prevent cell death induced by PT-112 (FIG. 4B). Cells were pretreated for 1 h with or without pan-caspase or/and necroptosis inhibitors and then, incubated with 10 μM of PT-112 for 48 h. Flow cytometry analysis was carried-out using annexin-V-FITC and 7-AAD staining. Cells were stained simultaneously with annexin-V-FITC and 7-AAD and the percentage of the different populations analyzed by flow cytometry. […]
# [4] = test system: L929-ρ^0 cells; assay: MTT relative cell growth, rho0 cells; settings: 2, 6 and 10 μM, 24-72 h
# Method: (§1) Cell Culture and Generation of Cybrids Mouse fibroblast cell lines L929 and L929-derived (L929dt) were routinely cultured in high glucose DMEM medium with GlutaMAX (Life Technologies, Paisley, UK) supplemented with 10% of fetal calf serum (FCS), penicillin (1000 U/ml) and streptomycin (10 mg/ml) (PanBiotech, Aidenbach, Germany) at 37° C. and 5% CO2 using standard procedures. The transmitochondrial cell lines L929^dt and dt^L929 were obtained as previously described (Schmidt, W., et al. (1993) 53:799-805) and cultured with the identical medium used with the parental cells. For L929-ρ^0 cells, complete DMEM medium was also supplemented with 100 pyruvate (100 μg/ml) and uridine (50 μg/ml).
# Relative cell growth was measured using the Mossman's method. 3×10^4 cells were seeded per well in a 96-well flat-bottomed plate and incubated with increasing concentrations of PT-112 or cisplatin (2, 6, and 10 μM) for 24-72 h at 37° C. Then, 10 μl of a 5 mg/ml MTT dye solution was added per well and incubated for 3 hours. During the incubation time, viable cells reduce MTT solution in insoluble purple formazan crystals, solubilized afterwards with isopropanol and 0.05 M HCl mixture and the absorbance was measured in a microplate reader (Dynatec, Pina de Ebro, Spain). […]
# [5] = test system: L929 and dt^L929 cells; assay: MTT relative cell growth, OXPHOS-competent cells; settings: 72 h, higher doses
# Method: as §1
# (§2) Relative cell growth was measured using the Mossman's method. 3×10^4 cells were seeded per well in a 96-well flat-bottomed plate and incubated with increasing concentrations of PT-112 or cisplatin (2, 6, and 10 μM) for 24-72 h at 37° C. […] During the incubation time, viable cells reduce MTT solution in insoluble purple formazan crystals, solubilized afterwards with isopropanol and 0.05 M HCl mixture and the absorbance was measured in a microplate reader (Dynatec, Pina de Ebro, Spain).
# (§3) The sensitivity of L929, L929dt and cybrid cells to PT-112 was compared. […] The ability of both drugs to inhibit cell growth was assessed by the MTT reduction method. […]
# [6] = test system: L929, L929dt and cybrids cells; assay: Cytotoxicity, annexin-V-FITC/7-AAD flow cytometry; settings: 10 μM, 24, 48 or 72 h
# Method: Cytotoxicity assays were carried-out as follows: 100 μl aliquots of 3×10^4 cells were seeded per well in 96-well plate and 10 μM of PT-112 or cisplatin was added and incubated for 24-72 h at 37° C. Cell death was analyzed using a FACScalibur flow cytometer (BD Biosciences) after incubation with Annexin-V-FITC and/or 7-AAD (BD Biosciences, Madrid) in annexin binding buffer (140 mM NaCl, 2.5 mM CaCl2), 10 mM HEPES/NaOH, pH 7.4) for 10 minutes.
# To test cell death induction by PT-112 and cisplatin, the parental cells L929, L929dt and cybrids cells were incubated with 10 μM of PT-112 or cisplatin for 24, 48 or 72 h and, at the end of the incubations, simultaneously stained with annexin-V-FITC and 7-AAD and analyzed by flow cytometry. […] The results are shown as mean±SD of at least 2 independent experiments made in duplicate. […] On the contrary, in cells treated with PT-112, this population is not observed at any time point in sensitive L929dt and L929^dt cells, and a population double positive for both markers is at short times of exposure, increasing with time (FIG. 2B, bar sections colored in white). Finally, at longer times, a population positive for 7-AAD and negative for annexin-V staining appears for both cell lines, typical of necrotic cell death (FIG. 2B, sections colored in grey).
# [7] = test system: L929dt and L929^dt cybrid cells; assay: MTT relative cell growth, glycolytic cells; settings: 72 h, highest dose (10 μM)
# Method: as §1, §2, §3
compound,measurement,setting,value
CC1(C)CC(NC(=O)C[P+](c2ccccc2)(c2ccccc2)c2ccccc2)CC(C)(C)N1[O] [MitoTEMPO],inhibition of mitochondrial superoxide generation induced by PT-112,"[1]; 100 μM MitoTEMPO 2 h, then 10 μM PT-112, L929dt cells",only partially
same,inhibition of mitochondrial superoxide generation induced by antimycin A,"[1]; 100 μM MitoTEMPO, L929dt cells",almost completely abolish
same,protection from PT-112-induced L929dt cell death,"[2]; 100 μM MitoTEMPO, 10 μM PT-112, statistically significant after 72 h",partial protection
O=C(O)c1ccc(/C2=C3\C=CC(=N3)/C(c3ccc(C(=O)O)cc3)=c3/cc/c4[n]3[Mn]([Cl])[n]3c2ccc3/C(c2ccc(C(=O)O)cc2)=C2/C=CC(=N2)\C=4c2ccc(C(=O)O)cc2)cc1 [MnTBAP],effect on PT-112-induced cell death,[2],neither of them were able to prevent
CC1(C)CCCC(C)(C)N1[O] [TEMPO],effect on PT-112-induced cell death,[2],neither of them were able to prevent
COC(=O)C[C@H](NC(=O)[C@H](C)NC(=O)[C@@H](NC(=O)OCc1ccccc1)C(C)C)C(=O)CF [Z-VAD-fmk] (Cbz-Val-Ala-Asp(OMe)-CH2F),prevention of cell death induced by PT-112,[3],did not inhibit cell death
N.N.[Cl][Pt][Cl] [cisplatin],cell growth,[4],inhibited the growth
same,growth inhibition,[5],70%
same,cell death induction,[6],induces cell death in all cell lines
same,growth inhibition,[7],95%
N[C@@H](CCC(=O)N[C@@H](CS)C(=O)NCC(=O)O)C(=O)O [glutathione],effect on PT-112-induced cell death,[2],completely abolished
CN1C(=O)C(Cc2c[nH]c3ccccc23)NC1=S (centres unmarked) [necrostatin-1],prevention of cell death induced by PT-112,[3],did not inhibit cell death
Cc1c(C)c2c(c(C)c1O)CC[C@@](C)(CCC[C@H](C)CCC[C@H](C)CCCC(C)C)O2 [α-tocopherol],effect on PT-112-induced cell death,[2],neither of them were able to prevent
antimycin A,"mitochondrial superoxide anion, MFI","[1]; L929dt cells, MitoSOX, FIG. 7",128
